Patent US7935847B2, “Nitroxyl ion source with second order reaction nitroxyl release” (Duke University, priority 2007, dated 2011)
“Also recorded” adds a separate entry of the source.

What was measured:
[1] = Isolability / rate of nitroxyl release on attempted synthesis; format: physicochemical; details: electron withdrawing group p-nitrophenyl; nitrosation of 4g with NaNO2 in glacial acetic acid
Description: It has been found herein that the rate of release is so fast, when the electron withdrawing group on the carbon acid is p-nitrophenyl, e.g., when the compound is (I) below.
The same would be true where the electron withdrawing group is nitro. Thus the compound of the invention excludes the cases where the electron withdrawing group is nitro or p-nitrophenyl.
A freshly prepared solution of aqueous 10M NaNO2 (0.59 ml, 5.9 mmol) is added dropwise with stirring to a cooled (ice/H2O bath) solution of (1.22 g, 4.9 mmol) 4g in glacial acetic acid (1.5 ml). Stirring is continued for 1 hour. The reaction mixture is diluted with the water (5 mL) and precipitates are filtered off at vacuum. The filter cake is washed with water (20 ml), hexane (20 ml) and dried under vacuum to give

[2] = test system: congestive heart failure and a dilated cardiomyopathy; test: Treatment of heart failure (Working Example IV); format: in vivo, human; details: person with congestive heart failure and dilated cardiomyopathy; intravenously, blood concentration of 10 nanomolar
Description: A person with congestive heart failure and a dilated cardiomyopathy is administered compound (II) intravenously (to obtain a blood concentration of 10 nanomolar). Their ejection fraction improves, their blood pressure decreases, and […] pO2 improves on room air. Symptoms of angina also decrease.

[3] = test system: ischemic reperfusion injury; test: Prevention of ischemic reperfusion injury (Working Example V); format: in vivo, human; details: person, heart attack, bypass surgery; intravenously, blood concentration of 10 nanomolar from 15 minutes before reperfusion up to 20 minutes thereafter
Description: A person presents with a heart attack. Blockage is treated with bypass surgery. The patient is give compound (II) intravenously to maintain a blood concentration of 10 nanomolar 15 minutes before reperfusion up to 20 minutes thereafter.

## CC(=O)C(Cc1ccc([N+](=O)[O-])cc1)(N=O)C(C)=O [Compound (I)]
[1]
  stability / isolability (rate of nitroxyl release): cannot be isolated; also recorded: couldn't be isolated

## CC(=O)C(Cc1ccc(Br)cc1)(N=O)C(C)=O [Compound (II), 3-(4-bromobenzyl)-3-nitroso-2,4-pentanedione]
[2]
  blood pressure: decreases
  ejection fraction: improves
  pO2 on room air: improves
  symptoms of angina: decrease
[3]
  ischemic reperfusion injury: does not occur
